Test results: the NIST ThermoML archive (doi:10.1016/j.jct.2014.02.003)
Numbers after ± are expanded uncertainties. Each block holds one compound with its values, some of them ahead of it.

Test: molar enthalpy of vaporization or sublimation
Conditions: Crystal, Knudsen effusion method coupled with mass spectrometer, from logarithm of peak intensity

- molar enthalpy (471.15 K): 47.8 ± 0.43 kcal/mol
Compound: N[C@@H](Cc1ccc(O)cc1)C(=O)O [3-(p-hydroxyphenyl)-L-alanine]

- molar enthalpy (418.15 K): 37.8 ± 0.478 kcal/mol
Compound: N[C@@H](Cc1ccccc1)C(=O)O [L-phenylalanine]

- molar enthalpy (450.15 K): 44.1 ± 0.55 kcal/mol
Compound: N[C@@H](Cc1c[nH]c2ccccc12)C(=O)O [L-tryptophan]

- molar enthalpy (308.21 K): 21.7 ± 0.454 kcal/mol
Compound: O=C(O)c1ccccc1 [benzoic acid]
